Data published in US20210060016A1, “ANTICANCER AGENT” (JAPANESE FOUNDATION FOR CANCER RESEARCH, priority 2017, published 2021).

How the values were obtained:
[1] = test system: human colorectal cancer cell line COLO-320DM; assay: Cell proliferation inhibitory activity test (Celltiter-Glo); format: cell-based; settings: 96 hours, read-out: COLO-320DM (cell proliferation inhibitory activity), G150 rating
Protocol: The cell proliferation inhibitory activity of the compound, which had been prepared in each of Compound Examples, against the human colorectal cancer cell line COLO-320DM was evaluated by Celltiter-Glo Luminescent Cell Viability Assay (Promega Corporation; G7573). COLO-320DM cells were cultured in RPMI-1640 medium containing 2 mM glutamine (Wako Pure Chemical Industries, Ltd; 189-02025) supplemented with 10% fetal bovine serum. The cultured cells were washed with PBS, and then dissociated with trypsin/EDTA, and a cell solution with 3×10^4 cells/mL was prepared.
Subsequently, the cell solution was seeded in a 96-well microplate (Thermo/Nunc Company; 136101) in an amount of 70 μL per well, and cultured overnight under the condition of 37° C. and 5% COz. The next day, a test compound solution obtained by diluting the test compound (DMSO solution) with a cell culture medium (final concentration of DMSO was 1%) was added in an amount of 10 μL per well, and the mixture was reacted under the condition of 37° C. and 5% CO2 for 96 hours (a 1% DMSO solution was used as a control). Thereafter, a Celltiter-Glo Luminescent Cell Viability Assay reagent was added (Promega Corporation; G7573) in an amount of 80 μL per well, the mixture was stirred with a shaker for 2 minutes while light was blocked with an aluminum foil, and the mixture was incubated at room temperature for 10 minutes.
Thereafter, a luminescence signal was measured with a luminometer (Biotech Company; Synergy). The ratio of cell proliferation in each compound addition group to cell proliferation in a control group containing no test compound solution, where cell proliferation in the control group is 100%, was determined, and the value of a compound concentration necessary for suppressing the amount of residual cells to 50% of that in the control (G150) was calculated as the cell proliferation inhibitory activity. For the COLO-320DM (cell proliferation inhibitory activity against COLO-320DM) of each test compound as measured through the above-mentioned method, a test compound having a G150 value of less than 1 μM was rated “A”, a test compound having a G150 value of 1 μM or more and less than 10 μM was rated “B”, a test compound having a G150 value of 10 μM or more was rated “C”, and an unevaluated test compound was designated as “NT”.

[2] = test system: human colorectal cancer cell line COLO-320DM; assay: MTT assay, combination of test compound and other anticancer agents; format: cell-based; settings: Examples 9 to 14, COLO-320DM: test compound added at the concentration shown in FIGS. 9 to 14 to irinotecan (SN-38); survival with only irinotecan = 100%
Protocol: The ratio of residual cells in treatment of the human colorectal cancer cell line COLO-320DM with a combination of the compound prepared in each Compound Example (test compound or tankyrase inhibitory compound) and each of the anticancer agents was measured to evaluate the cell killing effect of the combination on the human colorectal cancer cell line COLO-320DM. The combinations of test compounds and anticancer agents are as follows.
(Example 8): combination of the compound prepared in Compound Example 5 and temozolomide, melphalan, gemcitabine, cytarabine (Ara-C), fluorouracil (5-FU), pemetrexed, mercaptopurine, methotrexate, irinotecan (SN-38), etoposide (VP-16), actinomycin D, daunorubicin, doxorubicin, bleomycin, mitoxantrone, oxaliplatin, carboplatin or cisplatin (Example 9): combination of the compound prepared in Compound Example 110 (G007-LK) and irinotecan (SN-38) (Example 10): combination of the compound prepared in Compound Example 11 and irinotecan (SN-38) (Example 11): combination of the compound prepared in Compound Example 19 and irinotecan (SN-38) (Example 12): combination of the compound prepared in Compound Example 101 and irinotecan (SN-38) (Example 13): combination of the compound prepared in Compound Example 1 and irinotecan (SN-38) (Example 14): combination of the compound prepared in Compound Example 113 and irinotecan (SN-38)
Commercially available compounds were used for temozolomide (manufactured by Sigma-Aldric), melphalan (manufactured by Signa-Aldrich), gemcitabine (Gemcitabine hydrochloride; manufactured by Sigma-Aldric), cytarabine (Cytosine β-D-arabinofuranoside (Ara-C); manufactured by Sigma-Aldrich), fluorouracil (5-Fluorouracil (5-FU); manufactured by Sigma-Aldrich), pemetrexed (Pemetrexed disodium heptahydrate; manufactured by Sigma-Aldrich), mercaptopurine (6-Mercaptopurine monohydrate; manufactured by Sigma-Aldrich), methotrexate (Methotrexate hydrate; manufactured by Sigma-Aldrich), irinotecan (7-Ethyl-10-hydroxycamptothecin (SN-38); manufactured by Sigma-Aldrich), etoposide (Etoposide (VP-16); manufactured by Enzo Life Sciences, Inc.), actinomycin D (manufactured by nacalai tesque), daunorubicin (Daunorubicin hydrochloride; Calbiochem), doxorubicin (Doxorubicin hydrochloride; manufactured by Sigma-Aldrich), bleomycin (Bleomycin sulfate; manufactured by Enzo Life Sciences, Inc.), mitoxantrone (Mitoxantrone dihydrochloride; manufactured by Sigma-Aldrich), oxaliplatin (manufactured by Sigma-Aldrich), carboplatin (manufactured by Sigma-Aldrich) and cisplatin (manufactured by Enzo Life Sciences, Inc.).
First, the human colorectal cancer cell line COLO-320DM was suspended in RPMI1640 medium (hereinafter, medium) containing inactivated 10% fetal bovine serum, and the cells were seeded in a 96-well microplate at 350 cells (75 μL) per well. The cells were subjected to stationary culture overnight in a CO2 incubator at 37° C. Thereafter, in Example 8, a medium (25 μL) containing a combination of the compound prepared in Compound Example 5 and each of the anticancer agents was added in triplicate in such a manner that the final concentrations of the test compound (compound prepared in Compound Example 5) were 0 nM or 30 nM and that the final concentrations of each anticancer agent were those shown in Table 14. In Examples 9 to 14, a medium (25 μL) containing a combination of the compound prepared in each of Compound Examples and each of the anticancer agents was added in triplicate in such a manner that the final concentrations of the test compound were 0 nM or those shown in FIGS. 9 to 14. As a control, 25 μL of a medium containing only dimethyl sulfoxide (DMSO) which is a solvent was added. […]

IC50 [1] [µM]	SMILES	cell survival rate [2]
< 1	CCOc1ccc(-c2n[nH]nc2[C@H]2NC(=O)c3cccc(C)c3N2)cc1 [Compound Example 101, (2R)-2-[5-(4-Ethoxyphenyl)-2H-1,2,3-triazol-4-yl]-8-methyl-2,3-dihydro-1H-quinazolin-4-one]	about 50%
≥ 10	COc1ccc(-c2c[nH]nc2C2NC(=O)c3cccc(C)c3N2)cc1 (stereo not shown) [Compound Example 113, 2-[4-(4-Methoxyphenyl)-1H-pyrazol-3-yl]-8-methyl-2,3-dihydro-1H-quinazolin-4-one]	about 50%
